Results reported in patent US12138301B2, “Compounds including a mutant KRAS sequence and a lipid and uses thereof” (Elicio Therapeutics, Inc., priority 2018, dated 2024).
Entries after “also recorded” stand apart in the source; their conditions may differ.

Experiments:
splenocytes [1] = assay: ELISpot analysis for IFNγ on splenocytes of immunized mice (Example 1, KRas G12D); type: in vivo, C57BL/6 mice; conditions: splenocytes activated with G12D 18mer 5 μg/well
Description: The efficacy of soluble-KRas (KRas) or amphiphile-KRas (aKRas) (FIG. 6) mutant sequences and an amphiphile-CpG adjuvant (aCpG) to elicit an immune response was determined.
The experimental design included the following 4 groups of C57BL16 mice immunized with the listed compounds (n=5 for each group): • 1. KRas G12D+aCpG • 2. aKRas G12D+aCpG • 3. KRas G12D+pIC • 4. No immunization
PolyIC (pIC) was used as a benchmark adjuvant control.
The adjuvant, as well as peptide stock, solutions were dissolved in H2O. Final injections were diluted with 1×PBS (phosphate buffered saline).
The aKRas peptides used were 18mer sequences of mutant sequences with a G12D substitution (amino acids 4-21 of wild-type→YKLVVVGAGGVGKSALTI (SEQ ID NO:9)). 20 μg in 100 μl were used for each injection.
The aCpG sequence used was the CpG1826 sequence (5′-[…]-3′; SEQ ID NO:10) with two guanines added at the 5′ end (5′-gg […]-3′; SEQ ID NO:11) at a concentration of 5 nmol for each 100 μl injection. CpG1826 is an optimal mouse sequence while CpG7909 is optimal for humans and poorly active in mice. CpG1826 and CpG7909 are in the same CpG class (class B) and generally have similar activity profiles in their respective species.
50 μg of pIC were used for each 100 μl injection.
Primer immunizations were given subcutaneously (s.c.) into the tail base (day 0) with one booster dose after 2 weeks (day 14). ELISpot analysis for IFNγ on splenocytes was performed, using standard protocols, […] after booster dose administration (day 21). Splenocytes (10^6 cells/well) were activated with 5 μg/well of G12D sequence 18mer (aa4-21)→YKLVVVGADGVGKSALTI (SEQ ID NO:1).

PBMCs/Splenocytes = assay: ICS for IFNγ on PBMCs and ELISpot for IFNγ on splenocytes of immunized HLA-A2.1 transgenic mice (Example 3); type: in vivo, B6 HLA-A2.1 Tg mice; conditions: peptide 20 μg s.c., two boosters at two-week intervals, HLA-A2.1 Tg mice
From the text: B6 mice transgenic for the human HLA gene, A2.1, were immunized either with the soluble or amphiphile-conjugated forms of the KRas G12D antigen, as well as adjuvant (CpG or aCpG). The A2.1 allele is known to mount responses to the KRas peptides in humans.
The experimental design included the following 4 groups of B6 HLA-A2.1 Tg mice immunized with the listed compounds (n=5 for each group): • 1. KRas wild-type+CpG • 2. KRas 12D+CpG • 3. aKRas 12D+aCpG • 4. No immunization
(§1) The adjuvant as well as peptide stock solutions were dissolved in H2O. Final injections were diluted with 1×PBS.
The aKRas peptides used were 18mer sequences of mutant sequences with a G12D substitution (amino acids 4-21 of wild-type 4 […] (SEQ ID NO:9)). 20 μg in 100 μl were used for each injection.
(§2) The aCpG sequence used was the CpG1826 sequence (5′-[…]-3′; SEQ ID NO:10) with two guanines added at the 5′ end (5′-gg […]-3′; SEQ ID NO:11) at a concentration of 5 nmol for each 100 μl injection.
The vaccine was administered subcutaneously to female mice bilaterally at the tail base at 50 μl per side. Two booster doses were given in two-week intervals.
Intracellular cytokine staining (ICS) analysis for IFNγ on peripheral blood mononuclear cells (PBMCs) and ELISpot analysis for IFNγ on splenocytes was performed, using standard protocols, 7 days after the second and third booster dose, respectively.
PBMCs/Splenocytes (10^6 cells/well and 2×10^6 cells/well) were activated with 5 μg/well of either SEQ ID NO:1 or one of SEQ ID NOS:12-20 as shown below:
Specific mutant peptides are given only to the mice that were immunized with the corresponding 18mer.

splenocytes [2] = assay: ELISpot analysis for IFNγ on splenocytes, higher antigen concentration and bi-weekly or weekly dosing (Example 4); type: in vivo, C57BL/6 mice; conditions: peptide 50 μg s.c.; for KRas-specific CD8+ T-cell response (9mers): restimulation with 9mers; for CD8+ or CD4+ T-cell response (18mer): restimulation with 18mer
Description: The concentration of antigen was increased from 20 μg to 50 μg and bi-weekly (bw) or weekly (w) dose intervals were tested.
The experimental design included the following 5 groups of C57BL/6 mice immunized with the listed compounds (n=5 for each group): • 1. KRas 12D+CpG1826 (bw) • 2. KRas 12D+CpG1826 (w) • 3. aKRas 12D+aCpG1826 (bw) • 4. aKRas 12D+aCpG1826 (w) • 5. No immunization
as §1
50 μg in 100 μl were used for each injection.
as §2
Primer immunizations were given subcutaneously (s.c.) into the tail base with one booster dose after 2 weeks.
ELISpot analysis for IFNγ, and CBA (cytometric bead array) analysis for IL6, I-10, IL12, TNFα, IFNγ, and MCP1 was performed on splenocytes, using standard protocols, 7 days after booster dose administration.
Specific mutant peptides were given only to the mice that were immunized with the corresponding 18mer.
Separate plates were prepared for either short (9mer and 10mer) or long (17mer and 18mer) peptide stimulations. Cells from “No immunization” control mice were stimulated with all stimuli.

[3] = test system: KRAS-specific splenic T-cells; assay: Summary of mouse immunogenicity studies: KRAS-specific splenic T-cells by ELISPOT and cytokine bead array (Example 5); type: in vivo, C57BL/6 mouse; conditions: subcutaneous administration; identified by ELISPOT and cytokine bead array
splenocytes [4] = assay: ELISpot analysis for IFNγ on splenocytes of immunized mice (Example 2, KRas G12R and G12V); type: in vivo, C57BL/6 mice; conditions: in combination with aCpG 5 nmol; peptide 20 μg s.c. day 0 + booster d14; splenocytes activated with G12V or G12R 18mer 5 μg/well
Description: as §2

[5] = in combination with aCpG 5 nmol, peptide 20 μg s.c. tail base day 0 + booster day 14
[6] = in combination with aCpG 5 nmol

DSPE-amido-dPEG24-amido-dPEG24-CYKLVVVGADGVGKSALTI [aKRas G12D]
activation of splenocytes (ELISpot for IFNγ) (splenocytes [1]; [5]): activated splenocytes | KRas-specific CD8+ T-cell response (PBMCs/Splenocytes; [6]): KRas-specific CD8′ T-cell response; also recorded: KRas-specific CD8^+ T-cell response | KRas-specific CD8+ T-cell response (9mers) (splenocytes [2]; [6]): KRas-specific CD8^+ T-cell response | CD8+ or CD4+ T-cell response (18mer) (splenocytes [2]; [6]): CD8′ or CD4*T-cell response; also recorded: CD8^+ or CD4^+ T-cell response | inducing KRAS-specific splenic T-cells in mice [3]: effective

YKLVVVGAGGVGKSALTI [soluble wild-type KRas]
KRas-specific CD8+ T-cell response (PBMCs/Splenocytes; in combination with CpG): not

YKLVVVGAVGVGKSALTI [soluble KRas G12V]
activation of splenocytes (ELISpot for IFNγ) (splenocytes [4]): did not

YKLVVVGARGVGKSALTI [soluble KRas G12R]
activation of splenocytes (ELISpot for IFNγ) (splenocytes [4]): did not

YKLVVVGADGVGKSALTI [soluble KRas G12D]
activation of splenocytes (ELISpot for IFNγ) (splenocytes [1]; [5]): did not | activation of splenocytes (ELISpot for IFNγ) (splenocytes [1]; in combination with pIC 50 μg, peptide 20 μg s.c. day 0 + booster day 14): did not | KRas-specific CD8+ T-cell response (PBMCs/Splenocytes; in combination with CpG): not | KRas-specific CD8+ T-cell response (9mers) (splenocytes [2]; in combination with CpG): not | CD8+ or CD4+ T-cell response (18mer) (splenocytes [2]; in combination with CpG): not
